Measured values published in US10112977B2, “Peptide for inducing multinucleation in cells, and use therefor” (Toagosei Co., Ltd., priority 2014, dated 2018).
Values joined by “and” are separate entries in the source; they are usually repeats but may differ in a detail not shown here. Identical values can stand only once. Peptide text beside a SMILES is read from it.

Assays:
HeLa S3 cells [1] = experiment: Evaluation test 1 of multinucleation-inducing activity (calreticulin cytoimmunostaining and DAPI nuclear staining, confocal fluorescence observation); format: cell-based, human; conditions: peptide concentration 50 μM, culture for 4 days
Experimental: To evaluate the multinucleation-inducing activity of the multinucleation-inducing synthetic peptides (sample 1 and sample 2) obtained in Example 1, cytoimmunostaining (fluorescence immunostaining) was performed using calreticulin as the cytoplasm marker and nuclear staining was performed with DAPI (4′,6-diamidino-2-phenylindole). HeLa S3 cells (ATCC (registered trademark), CCL2.2), a cultured cell strain originating from human cervical cancer, were used as the sample cells. The evaluation test is described in the following.
HeLa S3 cells were seeded into each well of a 4-chamber (well) cell culture slide (also referred to as a chamber) to provide approximately 1×10^3 cells per well and were cultured overnight in an incubator under conditions of 5% CO2 and 37° C. The medium used was a common DMEM medium, i.e., DMEM (Wako Pure Chemical Industries, Ltd., Cat. No. 043-30085) containing 10% […], 100 units/mL of penicillin, and 100 μg/mL of streptomycin. After this overnight culture, the medium in the culture chamber was exchanged for medium obtained by the addition, to the aforementioned DMEM medium containing PBS, penicillin and streptomycin, of the sample 1, sample 2, or sample 3 peptide in an amount providing a peptide concentration of 50 μM, and subculturing was carried out by culture for 4 days under the same conditions. The control group was a peptide-free group in which only PBS (−) was added in the same volume as the peptide stock solution that was added in the sample addition groups.
After completion of the culture period, the status of multinucleation in the cells in each test group was observed using the following cytoimmunostaining.
The cells in each test group wore first fixed followed by a blocking treatment. Specifically, the medium in the culture chamber in the test group was first removed and washing was carried out twice with cold PBS (−). A solution prepared by mixing 1 volume of methanol with 1 volume of acetone (methanol/acetone=1:1 solution) was then added and the HeLa S3 cells were fixed by standing for 15 minutes on ice. The methanol/acetone=1:1 solution was then removed acid washing was carried out three times with cold PBS PBS (−) containing 3% BSA (PBS (−) that contained 3% BSA) was added and a blocking treatment was carried out for 1 hour at room temperature. After the passage of the prescribed period of time, the PBS (−) containing 3% BSA was removed and washing with cold PBS (−) was performed three times. […]
The cells in each test group that had been subjected to this cytoimmunostaining were mounted using a cover glass and Slow Fade (Life Technologies Corporation, Cat. No. S36936), which is a DAPI-containing mountant, and fluorescence observation was performed using a confocal laser microscope. […]

HeLa S3 cells [2] = experiment: Evaluation test 2 of multinucleation-inducing activity (multinucleation induction ratio); format: cell-based, human; conditions: 50 μM peptide, 4 days; for number of multinuclear cells (number): cells with two or more nuclei in 1 field of vision, individual test; for multinucleation induction ratio (%): individual test (1 field of vision)
Experimental: The multinucleation induction ratio was determined for the multinucleation-inducing synthetic peptides (sample 1 and sample 2) obtained in Example 1. The same HeLa S3 cells as in Example 2 were used for the sample cells. The evaluation test is described in the following.
HeLa S3 cells were seeded into each well of an 8-chamber (well) cell culture slide (also referred to as a chamber) to provide approximately 0.5×10^3 cells per well and were cultured overnight in an incubator under conditions of 5% CO2 and 37° C. The medium used was a common DMEM medium, i.e., DMEM (Wako Pure Chemical industries, Ltd., Cat. No. 043-30085) containing 10% FBS, 100 units/mL of penicillin, and 100 μg/mL of streptomycin. After this overnight culture, the medium in the culture chamber was exchanged for medium obtained by the addition of sample 1 or sample 2 in an amount giving a peptide concentration of 50 μM to DMEM medium prepared by adding 3% FBS, 100 units/mL of penicillin, and 100 μg/mL of streptomycin to the aforementioned DMEM, and subculturing was carried out by culture for 4 days under the same conditions. The control group was a peptide-free group in which only PBS (−) was added in the same volume as the peptide stock solution that was added in the sample addition groups.
After completion of the culture period, the cells in the test groups were subjected to cytoimmunostaining of a cytoplasm marker (calreticulin) nuclear staining as in Example 2. After the execution of the cytoimmunostaining and nuclear staining, the cells each test group were subjected to fluorescence observation using a confocal laser microscope and, for the cells observed in 1 field of vision, the total number of cells and the number of cells presenting two or more nuclei (number of multinucleated cells) were counted. The multinucleation induction ratio (proportion (%) for the number of cells having two or more nuclei with reference to the total number of cells observed in 1 field of vision in the microscopic observation) was calculated using the following formula: multinucleation induction ratio (%)=(number of cells having two or more nuclei)÷(total number of cells)×100. Using these conditions air the evaluation test for the multinucleation induction ratio, the test was carried out independently three times and the average multinucleation induction ratio was calculated by taking the average of the multinucleation induction ratios obtained in the individual tests.

Molecule | cells in which a plurality of nuclei had formed (induction of multinucleation), fluorescence observation (HeLa S3 cells [1]) | average multinucleation induction ratio (%) (HeLa S3 cells [2]; average of three independent tests) | number of multinuclear cells (number) (HeLa S3 cells [2]) | multinucleation induction ratio (%) (HeLa S3 cells [2]) | number of nuclei per multinucleated cell, compared with sample 2 addition group (HeLa S3 cells [1])
KKRTLRKNDRKKR (listed as Homo sapiens) [sample 3, reference compound] | cells in which a plurality of nuclei had formed were not observed | – | – | – | –
CC(C)C[C@H](NC(=O)[C@@H](NC(=O)[C@H](CCCNC(=N)N)NC(=O)[C@H](CCCCN)NC(=O)[C@@H](N)CCCCN)[C@@H](C)O)C(=O)N[C@@H](CCCNC(=N)N)C(=O)N[C@@H](CCCCN)C(=O)N[C@@H](CC(N)=O)C(=O)N[C@@H](CC(=O)O)C(=O)N[C@@H](CCCNC(=N)N)C(=O)N[C@@H](CCCCN)C(=O)N[C@@H](CCCCN)C(=O)N[C@@H](CCCNC(=N)N)C(=O)NCC(=O)NCC(=O)N[C@@H](CS)C(=O)N[C@@H](CO)C(=O)N[C@@H](CCCNC(=N)N)C(=O)N[C@@H](CCCNC(=N)N)C(=O)N[C@@H](CO)C(=O)N[C@@H](CCCCN)C(=O)N[C@@H](CO)C(=O)N[C@@H](CCCCN)C(=O)N[C@@H](CS)C(=O)O [sample 2, KKRTLRKNDRKKR GG CSRRSKSKC] (H-KKRTLRKNDRKKRGGCSRRSKSKC-OH; N-terminus and C-terminus assumed) | cells in which a plurality of nuclei had formed were observed | 35.6% | 9 number and 12 number and 11 number | 30.0% and 37.5% and 39.3% | –
CC(C)C[C@H](NC(=O)[C@@H](NC(=O)[C@H](CCCNC(=N)N)NC(=O)[C@H](CCCCN)NC(=O)[C@@H](N)CCCCN)[C@@H](C)O)C(=O)N[C@@H](CCCNC(=N)N)C(=O)N[C@@H](CCCCN)C(=O)N[C@@H](CC(N)=O)C(=O)N[C@@H](CC(=O)O)C(=O)N[C@@H](CCCNC(=N)N)C(=O)N[C@@H](CCCCN)C(=O)N[C@@H](CCCCN)C(=O)N[C@@H](CCCNC(=N)N)C(=O)NCC(=O)NCC(=O)N[C@@H](CS)C(=O)N1CCC[C@H]1C(=O)N[C@@H](CC(=O)O)C(=O)NCC(=O)N[C@@H](C)C(=O)N[C@@H](CCCCN)C(=O)N[C@@H](C)C(=O)N[C@@H](CCCNC(=N)N)C(=O)N[C@@H](CS)C(=O)O [sample 1, KKRTLRKNDRKKR GG CPDGAKARC] (H-KKRTLRKNDRKKRGGCPDGAKARC-OH; N-terminus and C-terminus assumed) | cells in which a plurality of nuclei had formed were observed | – | 12 number and 11 number and 13 number | 41.4% and 39.3% and 41.9% | significantly larger number of nuclei per cell
